Laboratory results: the supplement of paper PMC5908809

Key:
NK-YS (IL-2 2.5 ng/mL) [1] = test: drug sensitivity score (DSS) (DSS units); higher = more sensitive; extreme values may be limits of the assay; details: 72 h
SNK-6 (IL-2 2.5 ng/mL) [2] = test: as above; details: 72 h
NK-92 (IL-2 2.5 ng/mL) [3] = test: as above; details: 72 h
NKL (IL-2 2.5 ng/mL) [4] = test: as above; details: 72 h
DERL-7 (IL-2 2.5 ng/mL) [5] = test: as above; details: 72 h
IMC-1 (IL-2 20 ng/mL) [6] = test: as above; details: 72 h
[7] = test system: normal primary NK cells, pool 3 (3 donors) (IL-2 2.5 ng/mL); test: as above; details: 72 h
KAI3 (IL-2 2.5 ng/mL) [8] = test: as above; details: 72 h
[9] = test system: normal primary NK cells, pool 1 (3 donors), resting (IL-2 0 ng/mL); test: as above; details: 72 h
[10] = test system: normal primary NK cells, pool 2 (3 donors) (IL-2 2.5 ng/mL); test: as above; details: 72 h
[11] = test system: normal primary NK cells, pool 1 (3 donors) (IL-2 2.5 ng/mL); test: as above; details: 72 h
KHYG-1 (IL-2 2.5 ng/mL) [12] = test: as above; details: 72 h
YT (IL-2 2.5 ng/mL) [13] = test: as above; details: 72 h
[14] = test system: normal NK cells expanded with K562-aAPC; test: as above; details: 72 h; IL-2 2.5 ng/mL
Description: (§1)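 Drug sensitivity and resistance testing on K562-aAPC-expanded normal NK cells: 5 concentrations (10-fold steps over a 10,000-fold range), 72 h at 37 °C, viability by CellTiter-Glo normalised to DMSO and benzethonium chloride controls; DSS from the fitted curve.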

[15] = test system: normal NK cells expanded with K562-aAPC; test: percent inhibition of viability; higher = more inhibition; details: 72 h, IL-2 2.5 ng/mL
Description: as §1

NK-YS (IL-2 2.5 ng/mL) [16] = test: as above; details: 72 h
SNK-6 (IL-2 2.5 ng/mL) [17] = test: as above; details: 72 h
NK-92 (IL-2 2.5 ng/mL) [18] = test: as above; details: 72 h
NKL (IL-2 2.5 ng/mL) [19] = test: as above; details: 72 h
DERL-7 (IL-2 2.5 ng/mL) [20] = test: as above; details: 72 h
IMC-1 (IL-2 20 ng/mL) [21] = test: as above; details: 72 h
[22] = test system: normal primary NK cells, pool 3 (3 donors) (IL-2 2.5 ng/mL); test: as above; details: 72 h
KAI3 (IL-2 2.5 ng/mL) [23] = test: as above; details: 72 h
[24] = test system: normal primary NK cells, pool 1 (3 donors), resting (IL-2 0 ng/mL); test: as above; details: 72 h
[25] = test system: normal primary NK cells, pool 2 (3 donors) (IL-2 2.5 ng/mL); test: as above; details: 72 h
[26] = test system: normal primary NK cells, pool 1 (3 donors) (IL-2 2.5 ng/mL); test: as above; details: 72 h
KHYG-1 (IL-2 2.5 ng/mL) [27] = test: as above; details: 72 h
YT (IL-2 2.5 ng/mL) [28] = test: as above; details: 72 h

CC/C(=C(\c1ccc(O)cc1)c1ccc(OCCN(C)C)cc1)c1ccccc1 [4-hydroxytamoxifen] (max concentration tested 10000 nM)
Details	drug sensitivity score
DERL-7 (IL-2 2.5 ng/mL) [5]	7.09
IMC-1 (IL-2 20 ng/mL) [6]	5.5
KAI3 (IL-2 2.5 ng/mL) [8]	6.52
KHYG-1 (IL-2 2.5 ng/mL) [12]	5.42
NK-92 (IL-2 2.5 ng/mL) [3]	6.14
NK-YS (IL-2 2.5 ng/mL) [1]	4.91
NKL (IL-2 2.5 ng/mL) [4]	4.98
SNK-6 (IL-2 2.5 ng/mL) [2]	4.28
YT (IL-2 2.5 ng/mL) [13]	6.69
[7]	3.03
[9]	4.19
[10]	5.13
[11]	3.97
[14]	4.78

percent inhibition of viability [%]
Details	1 nM	10 nM	100 nM	1000 nM	10000 nM
DERL-7 (IL-2 2.5 ng/mL) [20]	7.02	-0.93	4.62	16.8	79.2
IMC-1 (IL-2 20 ng/mL) [21]	-4.59	-0.5	3.38	9.15	71.8
KAI3 (IL-2 2.5 ng/mL) [23]	7.22	10.1	14.3	5.63	102
KHYG-1 (IL-2 2.5 ng/mL) [27]	-2.07	1.6	5.77	21.8	55.9
NK-92 (IL-2 2.5 ng/mL) [18]	3.77	-3.77	6.43	2.65	103
NK-YS (IL-2 2.5 ng/mL) [16]	-2.09	3.5	7.72	7.44	66.8
NKL (IL-2 2.5 ng/mL) [19]	8.86	-6.55	2.97	4.58	77.8
SNK-6 (IL-2 2.5 ng/mL) [17]	-1.81	-16.4	0.89	-17.1	93.9
YT (IL-2 2.5 ng/mL) [28]	3.34	-0.32	-0.38	9.38	93.1
[15]	-7.32	-3.75	-0.57	7.65	64
[22]	-0.81	-2.52	-1.24	3.05	49.3
[24]	-6.81	0.21	-12.3	-11.9	88.8
[25]	-4	-6.91	4.61	4.67	80.2
[26]	-13	0.38	-1.85	-2.34	75.4

COc1ccc2c(OCc3nnc4ccc(-c5ccccc5)nn34)ccnc2c1 [AMG-208] (max concentration tested 2500 nM)
Details	drug sensitivity score
DERL-7 (IL-2 2.5 ng/mL) [5]	0.89
IMC-1 (IL-2 20 ng/mL) [6]	0.02
KAI3 (IL-2 2.5 ng/mL) [8]	0.07
KHYG-1 (IL-2 2.5 ng/mL) [12]	0.59
NK-92 (IL-2 2.5 ng/mL) [3]	0.61
NK-YS (IL-2 2.5 ng/mL) [1]	0
NKL (IL-2 2.5 ng/mL) [4]	0
SNK-6 (IL-2 2.5 ng/mL) [2]	7.74
YT (IL-2 2.5 ng/mL) [13]	0.16
[7]	0
[9]	0
[10]	0
[11]	0
[14]	0

percent inhibition of viability [%]
Details	0.25 nM	2.5 nM	25 nM	250 nM	2500 nM
DERL-7 (IL-2 2.5 ng/mL) [20]	-3.09	-8.21	-1.7	-5.84	-4.71
IMC-1 (IL-2 20 ng/mL) [21]	-1.21	1.46	1.28	6.67	11.1
KAI3 (IL-2 2.5 ng/mL) [23]	-0.14	-2.19	-6.54	1.34	11.6
KHYG-1 (IL-2 2.5 ng/mL) [27]	-2.14	0.21	1.18	6.23	15.6
NK-92 (IL-2 2.5 ng/mL) [18]	0.24	-14.7	-6.65	10.4	13.1
NK-YS (IL-2 2.5 ng/mL) [16]	-3.94	-3.82	-0.96	1.47	6.08
NKL (IL-2 2.5 ng/mL) [19]	-4.88	-0.72	5.74	1.87	1.01
SNK-6 (IL-2 2.5 ng/mL) [17]	2.2	11.6	22.9	28.1	18.8
YT (IL-2 2.5 ng/mL) [28]	1.44	4.97	5.31	10	12.4
[15]	-4.22	-2.93	1.22	-1.02	9.46
[22]	-8.14	-5.89	5.5	0.46	5.72
[24]	-15.8	-2.94	7.27	3.54	-2.41
[25]	-3.74	-5.68	4.86	9.98	4.41
[26]	0.88	0.76	0.54	1.27	4.15
